Tests used:
[1] = test system: human mitochondria (Heb7A); test: Mitochondrial membrane potential assay with sensor device 1000, substrates and inhibitors added (FIG. 12); type: cell-based; conditions: isolated Heb7A mitochondria in respiration buffer, about 10 μM TPP+, sequential additions
Protocol: The voltmeter was linked to the computer via a GPIB interface (National Instrument, GPIB-USB-HS) for data communication. The voltage signal from the voltmeter was acquired using Labview software, so that simultaneous monitoring of the mitochondrial membrane potential could be achieved.
The evaluation of the mitochondrial membrane potential was performed with human mitochondria (Heb7A) in respiration buffer (225 mM mannitol, 75 mM sucrose, 10 mM KCl, 10 mM Tris-HCl, 5 mM KH2PO4, pH 7.2). The measurements were repeated 4 times with freshly prepared mitochondria to confirm the performance and the reproducibility of the sensor. […] 25 ng of isolated mitochondria in 85 μL was used for the test resulting in a final concentration of 0.29 ng/μL.
FIG. 11 illustrates an image of a complete sensor device 1000 showing the reference electrode 1015 and working electrode 1016 with arrows. The sensing chamber was filled with an initial volume of 71 μL respiration buffer. Once the plot baselined to zero, a 100 μM TPP^+Cl^− solution was added to provide a working concentration. The working concentration of TPP^+ was kept at about 10 μM to prevent inhibition of respiration. After stabilization, isolated mitochondria (5 ng μL/1) were added to the sensing chamber 1011.

[2] = compared with DDA+; cited from earlier work
[3] = value given for Equation 3; cited from earlier work

| SMILES | change in the magnitude of ΔΨm after addition [1] | diffusion coefficient through mitochondrial membranes relative to other cations such as DDA+ [2] [times faster] | partition coefficient, binding to the external face of the inner membrane (Ko) [3] [µL/mg] |
| --- | --- | --- | --- |
| O=C(O)CC(=O)O [malonate] | slow decrease in the magnitude of ΔΨm | – | – |
| O=C(O)CCC(=O)O [succinate] | increase the magnitude of ΔΨm | – | – |
| C=C(C)[C@H]1Cc2c(ccc3c2O[C@@H]2COc4cc(OC)c(OC)cc4[C@@H]2C3=O)O1 [Rot] | slow decline in the magnitude of ΔΨm | – | – |
| c1ccc([P+](c2ccccc2)(c2ccccc2)c2ccccc2)cc1 [TPP^+, tetraphenylphosphonium] | – | 15 | 14.3 |
